Measurements published in article PMC8963254, “Effects of Lysine N-ζ-Methylation in Ultrashort Tetrabasic Lipopeptides (UTBLPs) on the Potentiation of Rifampicin, Novobiocin, and Niclosamide in Gram-Negative Bacteria” (Antibiotics, 2022).
Converted amounts (≈) assume the structure as drawn.

Key:
Test in all cases: microbe, parasite or virus in culture
[1] = tested on: E. cloacae 118564; assay type: cell-based, Enterobacter cloacae; settings: E. cloacae 118564; for MIC: Enterobacter cloacae, 18 h, read-out: MICs of various antibiotics
Description: (§1) The in vitro antibacterial activity of the UTBLPs was assessed against wild-type and clinically isolated bacterial strains. To obtain the MIC of the compounds, the microbroth dilution susceptibility assay was performed according to the Clinical and Laboratory Standards Institute (CLSI, Wayne, PA, USA) guidelines and as previously described. Briefly, the compounds at varying concentrations were incubated with bacterial inoculum (5 × 10^5 CFU/mL final concentration) at 37 °C for 18 h. Growth in the form of turbidity was confirmed using an EMax Plus microplate reader (Molecular Devices, San Jose, CA, USA) at 590 nm.

[2] = tested on: P. aeruginosa PA259-96196; assay type: cell-based, Pseudomonas aeruginosa; settings: P. aeruginosa 259-96196; for MIC: Pseudomonas aeruginosa, PA25996196, 18 h, read-out: MICs of various antibiotics
Description: as §1

[3] = tested on: P. aeruginosa PA262-101856; assay type: cell-based, Pseudomonas aeruginosa; settings: P. aeruginosa 262-101856; for MIC: Pseudomonas aeruginosa, PA262101856, 18 h, read-out: MICs of various antibiotics
Description: as §1

[4] = tested on: E. coli 94474; assay type: cell-based, Escherichia coli; settings: E. coli 94474 (mcr-1 +); for MIC: Escherichia coli, 18 h, read-out: MICs of various antibiotics
Description: as §1

[5] = tested on: E. coli 94393; assay type: cell-based, Escherichia coli; settings: E. coli 94393 (mcr-1 +); for MIC: Escherichia coli, 18 h, read-out: MICs of various antibiotics
Description: as §1

[6] = tested on: K. pneumoniae 113250; assay type: cell-based, Klebsiella pneumoniae; settings: K. pneumoniae 113250; for MIC: Klebsiella pneumoniae, 18 h, read-out: MICs of various antibiotics
Description: as §1

[7] = tested on: A. baumannii AB027; assay type: cell-based, Acinetobacter baumannii; settings: A. baumannii AB027; for MIC: Acinetobacter baumannii, 18 h, read-out: MICs of various antibiotics
Description: as §1

[8] = tested on: A. baumannii AB92247; assay type: cell-based, Acinetobacter baumannii; settings: A. baumannii 92247; for MIC: Acinetobacter baumannii, AB92247, 18 h, read-out: MICs of various antibiotics
Description: as §1

Row | Molecule | MIC [1] | MIC [2] | MIC [3] | MIC [4] | MIC [5] | MIC [6] | MIC [7] | MIC [8] | MICs of various antibiotics [1] | MICs of various antibiotics [2] | MICs of various antibiotics [3] | MICs of various antibiotics [4] | MICs of various antibiotics [5] | MICs of various antibiotics [6] | MICs of various antibiotics [7] | MICs of various antibiotics [8]
1 | Cc1nnc(SCC2=C(C(=O)O)N3C(=O)[C@@H](NC(=O)Cn4cnnn4)[C@H]3SC2)s1 [CFZ, cefazolin] | > 128 µg/mL | > 128 µg/mL | > 128 µg/mL | 4 µg/mL (≈ 8.8 µM) | 1 µg/mL (≈ 2.2 µM) | 1 µg/mL (≈ 2.2 µM) | > 128 µg/mL | 128 µg/mL (≈ 282 µM) | – | – | – | – | – | – | – | –
2 | NCC[C@H](O)C(=O)N[C@@H]1C[C@H](N)[C@@H](O[C@H]2O[C@H](CN)[C@@H](O)[C@H](O)[C@H]2O)[C@H](O)[C@H]1O[C@H]1O[C@H](CO)[C@@H](O)[C@H](N)[C@H]1O [AMK, amikacin] | 2 µg/mL (≈ 3.42 µM) | > 64 µg/mL | > 64 µg/mL | 2 µg/mL (≈ 3.42 µM) | 2 µg/mL (≈ 3.42 µM) | ≤ 1 µg/mL | > 64 µg/mL | < 1 µg/mL | – | – | – | – | – | – | – | –
3 | CO[C@@]1(NC(=O)Cc2cccs2)C(=O)N2C(C(=O)O)=C(COC(N)=O)CS[C@@H]21 [FOX, cefoxitin] | > 32 µg/mL | > 32 µg/mL | > 32 µg/mL | 16 µg/mL (≈ 37.4 µM) | 4 µg/mL (≈ 9.36 µM) | 1 µg/mL (≈ 2.34 µM) | – | 32 µg/mL (≈ 74.9 µM) | – | – | – | – | – | – | – | –
4 | C[C@@H](O)[C@H]1C(=O)N2C(C(=O)O)=C(S[C@@H]3CN[C@H](C(=O)N(C)C)C3)[C@H](C)[C@H]12 [MER, meropenem] | 0.12 µg/mL (≈ 0.313 µM) | 1020 µg/mL (≈ 2670 µM) | 32 µg/mL (≈ 83.4 µM) | ≤ 0.03 µg/mL | ≤ 0.03 µg/mL | ≤ 0.03 µg/mL | 16 µg/mL (≈ 41.7 µM) | 4 µg/mL (≈ 10.4 µM) | – | – | – | – | – | – | – | –
5 | colistin [CST] | – | – | – | – | – | – | – | – | > 16 µg/mL | 1 µg/mL | 1 µg/mL | 16 µg/mL | 4 µg/mL | > 16 µg/mL | 0.25 µg/mL | 4 µg/mL
6 | CO/N=C(\C(=O)N[C@@H]1C(=O)N2C(C(=O)[O-])=C(C[N+]3(C)CCCC3)CS[C@H]12)c1csc(N)n1 [CPM, cefepime] | 0.25 µg/mL (≈ 0.52 µM) | > 64 µg/mL | 32 µg/mL (≈ 66.6 µM) | ≤ 0.25 µg/mL | ≤ 0.25 µg/mL | 1 µg/mL (≈ 2.08 µM) | > 128 µg/mL | 4 µg/mL (≈ 8.32 µM) | – | – | – | – | – | – | – | –
